Here are results for 27 compounds from patent US6022307A, “Substituted dibenzothiophenes having antiangiogenic activity” (American Cyanamid Company, priority 1999, dated 2000).

Structures can show the parent of a compound that is named as a salt.

The assay concerns KDR.
Method: Inhibition of Binding of VEGF 165 to KDR & Flt-1 Receptors as Measured by SPA Assay
Preparation of conditioned media containing the KDR-Fc soluble VEGF receptor.:
Human 293KDR2 cells, which secrete a soluble KDR-Fc fusion protein, were grown in Dulbecco's Modified Eagle Medium supplemented with 10% fetal calf serum, 2 mM glutamine, 10 units/ml penicillin G sulfate, 10 μg/ml streptomycin sulfate and 175 μg/ml geneticin (G418) sulfate. Cells were plated at a density of 10^6 cells/100 mm dish and incubated at 37° C. in a humidified atmosphere containing 95% air and 5% CO2. After 10 days, conditioned medium was collected and centrifuged at 15,000 rpm for 15 min to remove dead cells. A total of 0.1 volume of 1.15% gelatin and 0.02 volume of 1M HEPES buffer (pH 8) was added. Leupeptin and pepstatin A were added to 1 μg/ml each.
Preparation of ^125 I-labelled VEGF ligand:
Recombinant human ^125 T-labelled VEGF 165 was purchased from Amersham (3,800 cpm/fmol). ^125,-labelled VEGF was diluted in DMEM supplemented with gelatin (0.15%) and HEPES buffer (20 mM) to a final concentration of 40,000 cpm/25 μl.
Preparation of SPA beads:
SPA PVT antibody-binding beads were purchased from Amersham. Each bottle of SPA beads (500 mg) was reconstituted in 25 ml of DMEM supplemented with gelatin (0.15%) and HEPES buffer (20 mM). The bottle contents were well mixed (15 min with a stir bar at room temperature).
SPA assays were performed in flat-bottom polystyrene 96 well microtitre plates.
(a) Pipette 50 μl of SPA beads to well.
(b) Pipette 25 μl of conditioned medium to well.
(d) Pipette 25 μl of ^125 J-VEGF 165 to well.
The appropriate control wells were set up to measure non-specific binding, solvent effect, etc. The assays were run in duplicate or triplicate wells. Plates were sealed and incubate at room temperature without shaking for 5 to 20 hours. Plates were then counted in a Packard TopCount microtitre plate liquid scintillation counter.
A typical assay gave 3,000 to 6,000 cpm bound. Background binding (measured in the presence of 100-fold molar excess of unlabelled VEGF 165) was typically 200 to 300 cpm bound. Compounds were tested at 30, 10, 3, 1, 0.3 and 0.1 μg/ml in DMSO. […] Half maximal binding was determined by the following equation:
s=maximal cpm bound in the absence of compound.
The IC50 values were determined graphically by the following procedure:
A graph was drawn plotting compound concentration (x-axis) versus cpm bound (y-axis).
The half maximal binding was calculated using the equation above.
A horizontal line (LINE A) was drawn which intersects the y-axis at the half maximal binding value.
A vertical line (LINE B) was drawn through the point where LINE A intersects the inhibition curve.
The point where LINE B intersects the x-axis was extrapolated from the graph to give the IC50 value.
As to `O=C(Nc1cc2c(cc1S(=O)(=O)O)-c1cc(S(=O)(=O)O)c(NC(=O)c3cc4sccc4s3)cc1S2(=O)=O)c1cc2sccc2s1` [Example 43, 5,5-Dioxo-3,7-bis-[(thieno[3,2-b]thiophene-2-carbonyl)-amino]-5H-5^6-dibenzothiophene-2,8-disulfonic acid, disodium], the midpoint of inhibition, the IC50, lay at 0.6 µg/mL. Under `CCOP(=O)(O)c1cc2c(cc1NC(=O)c1cc3ccccc3s1)S(=O)(=O)c1cc(NC(=O)c3cc4ccccc4s3)c(P(=O)(OCC)OCC)cc1-2` [Example 23b, [3,7-Bis[(benzo[b]thiophene-2-carbonyl)amino-8-(diethoxyphosphoryl)-5,5-dioxo-5H-5λ^6-dibenzothiophen-2-yl]phosphonic acid monoethyl ester, monosodium salt] stands 0.58 µg/mL. In the case of `Cc1nn(C)c2sc(C(=O)Nc3cc4c(cc3S(=O)(=O)O)-c3cc(S(=O)(=O)O)c(NC(=O)c5cc6c(C)nn(C)c6s5)cc3S4(=O)=O)cc12` [Example 44, 3,7-Bis-[(1,3-di-methyl-1H-thieno[2,3-c]pyrazole-5-carbonyl)amino]-5,5-dioxo-5H-5^6-dibenzothiophene-2,8-disulfonic acid, disodium salt] it was 1.5 µg/mL. In the case of `CCOP(=O)(O)c1cc2c(cc1NC(=O)/C=C/c1ccc(OC)c(OC)c1Cl)S(=O)(=O)c1cc(NC(=O)/C=C/c3ccc(OC)c(OC)c3Cl)c(P(=O)(O)OCC)cc1-2` [Example 19, [3,7-Bis-[3-(2-chloro-3,4-dimethoxyphenyl)acryloylamino]-8-(ethoxyhydroxyphosphoryl)-5 .5-dioxo-5H-5λ^6-dibenzothiophen-2-yl]phosphonic acid monoethyl ester, disodium salt] it was 0.55 µg/mL. Regarding `COc1ccccc1/C=C/C(=O)Nc1cc2c(cc1S(=O)(=O)O)-c1cc(S(=O)(=O)O)c(NC(=O)/C=C/c3ccccc3OC)cc1S2(=O)=O` [Example 34, 3,7-Bis-[3-(2-methoxyphenyl)-acryloylamino]-5,5-dioxo-5H-5^6-dibenzothiophene-2,8-disulfonic acid, disodium salt], the half-maximal inhibitory concentration (IC50) (commonly the midpoint of a concentration-inhibition curve) stood at 2.5 µg/mL. Under `O=C(Nc1cc2c(cc1S(=O)(=O)O)-c1cc(S(=O)(=O)O)c(NC(=O)c3cc4ccccc4s3)cc1S2(=O)=O)c1cc2ccccc2s1` [Example 40, 3,7-Bis-[(benzo[b]thiophene-2-carbonyl)amino]-5,5-dioxo-5H-5^ -dibenzothiophene-2,8-disulfonic acid, disodium] stands 4 µg/mL; under `COc1ccc(C=CC(=O)Nc2cc3sc4cc(NC(=O)C=Cc5ccc(OC)c(OC)c5Cl)c(C(=O)[O-])cc4c3cc2C(=O)[O-])c(Cl)c1OC.[Na+].[Na+]` [disodium salt], 3 µg/mL.

With `N#Cc1ccc(/C=C/C(=O)Nc2cc3c(cc2S(=O)(=O)O)-c2cc(S(=O)(=O)O)c(NC(=O)/C=C/c4ccc(C#N)cc4)cc2S3(=O)=O)cc1` [Example 32, 3,7-Bis-[3-(4-cyanophenyl)-acryloylamino]-5,5-dioxo-5H-5^6-dibenzothiophene-2,8-disulfonic acid, disodium salt], the half-inhibitory concentration (IC50) is 0.8 µg/mL.

Consider `O=C(/C=C/c1cccc(O)c1)Nc1cc2c(cc1S(=O)(=O)O)-c1cc(S(=O)(=O)O)c(NC(=O)/C=C/c3cccc(O)c3)cc1S2(=O)=O` [Example 31, 3,7-Bis-[(E)-3-(3-hydroxy-phenyl)acryloylamino]-5,5-dioxo-5H-5^6-dibenzothiophene-2,8-disulfonic acid, disodium], for which the IC50 is 5 µg/mL. Under `O=C(/C=C/c1ccc([N+](=O)[O-])cc1)Nc1cc2c(cc1S(=O)(=O)O)-c1cc(S(=O)(=O)O)c(NC(=O)/C=C/c3ccc([N+](=O)[O-])cc3)cc1S2(=O)=O` [Example 25, 3,7-Bis-[3-(4-nitrophenyl)-acryloylamino]-5,5-dioxo-5H-5^6-dibenzothiophene-2,8-disulfonic acid, disodium salt] stands 1 µg/mL. `O=C(/C=C/c1ccc(Br)cc1)Nc1cc2c(cc1S(=O)(=O)O)-c1cc(S(=O)(=O)O)c(NC(=O)/C=C/c3ccc(Br)cc3)cc1S2(=O)=O` [Example 33, 3,7-Bis-[3-(4-bromophenyl)-acryloylamino]-5,5-dioxo-5H-5^6-dibenzothiophene-2,8-disulfonic acid, disodium salt] yielded an IC50 of 0.5 µg/mL.

In the case of `O=C(Nc1ccc(C(=O)Nc2cc3c(cc2S(=O)(=O)O)-c2cc(S(=O)(=O)O)c(NC(=O)c4ccc(NC(=O)c5ccccc5)cc4)cc2S3(=O)=O)cc1)c1ccccc1` [Example 60, 3,7-Bis-(4-benzoylaminobenzoylamino)-5,5-dioxo-5H-5^6-dibenzothiophene-2,8-disulfonic acid, disodium salt], the midpoint of inhibition, the IC50, lay at 0.5 µg/mL.

In turn, `O=C(Nc1cc2c(cc1S(=O)(=O)O)-c1cc(S(=O)(=O)O)c(NC(=O)c3ccc4ccccc4c3)cc1S2(=O)=O)c1ccc2ccccc2c1` [Example 57, 3,7-Bis-[(naphthalen-2-yl)carbonylamino]-5,5-dioxo-5H-5^6-dibenzothiophene-2,8-disulfonic acid, disodium salt] came in with a 50% inhibitory concentration (IC50) of 5 µg/mL. In the case of `CC(C)c1ccc(/C=C/C(=O)Nc2cc3c(cc2S(=O)(=O)O)-c2cc(S(=O)(=O)O)c(NC(=O)/C=C/c4ccc(C(C)C)cc4)cc2S3(=O)=O)cc1` [Example 36, 3,7-Bis-[3-(4-isopropylphenyl)-acryloylamino]-5,5-dioxo-5H-5^ -dibenzothiophene-2,8-disulfonic acid, disodium] it was 6 µg/mL; in that of `O=C(/C=C/c1ccc(-c2ccccc2)cc1)Nc1cc2sc3cc(NC(=O)/C=C/c4ccc(-c5ccccc5)cc4)c(C(=O)O)cc3c2cc1C(=O)O` [Example 9, 3,7-Bis-(3-biphenyl-4-ylacryloylamino)dibenzothiophene-2,8-dicarboxylic Acid, disodium salt], 3.4 µg/mL. In turn, `COc1ccc(C(=O)Nc2cc3c(cc2S(=O)(=O)O)-c2cc(S(=O)(=O)O)c(NC(=O)c4ccc(OC)cc4)cc2S3(=O)=O)cc1` [Example 50, 3,7-Bis-(4-methoxybenzoyl-amino)-5,5-dioxo-5H-5^6-dibenzothiophene-2,8-disulfonic acid, disodium salt] showed an IC50 of 5 µg/mL. Under `COc1cc(/C=C/C(=O)Nc2cc3sc4cc(NC(=O)/C=C/c5cc(Br)c(O)c(OC)c5)c(C(=O)O)cc4c3cc2C(=O)O)cc(Br)c1O` [Example 10, 3,7-Bis-[3-(3-bromo-4-hydroxy-5-methoxy-phenyl)acryloylamino]-dibenzothiophene-2,8-dicarboxylic Acid, disodium] stands 0.9 µg/mL; under `CCOP(=O)(O)c1cc2c(cc1NC(=O)c1ccc3c(c1)C(=O)c1ccccc1C3=O)S(=O)(=O)c1cc(NC(=O)c3ccc4c(c3)C(=O)c3ccccc3C4=O)c(P(=O)(O)OCC)cc1-2` [Example 21, [3,7-Bis-[9,10-dioxo-9,10-dihydroanthracene-2-carbonyl)amino]-8-(ethoxyhydroxy-phosphoryl)-5,5-dioxo-5H-5^6-dibenzothiophen-2-yl]phosphonic acid monoethyl ester, disodium salt], 0.2 µg/mL; under `COc1cc(NC(C)=O)ccc1C(=O)Nc1cc2c(cc1S(=O)(=O)O)-c1cc(S(=O)(=O)O)c(NC(=O)c3ccc(NC(C)=O)cc3OC)cc1S2(=O)=O` [Example 59, 3,7-Bis-[(4-acetylamino-2-methoxy-phenyl)carbonylamino]-5,5-dioxo-5H-5^6-dibenzothiophene-2,8-disulfonic acid, disodium salt], 6 µg/mL.

In the case of `O=C(Nc1cc2c(cc1S(=O)(=O)O)-c1cc(S(=O)(=O)O)c(NC(=O)c3ccc(S(=O)(=O)c4ccccc4)cc3)cc1S2(=O)=O)c1ccc(S(=O)(=O)c2ccccc2)cc1` [Example 52, 5,5-Dioxo-3,7-bis-(4-phenyl-sulfonylbenzoyl-amino)-5H-5^6-dibenzothiophene-2,8-disulfonic acid, disodium salt], the half-maximal inhibitory concentration (IC50) was 7 µg/mL.

`O=C(Nc1cc2sc3cc(NC(=O)c4cc5sccc5s4)c(C(=O)O)cc3c2cc1C(=O)O)c1cc2sccc2s1` [Example 5, 3,7-Bis[(thieno[3,2-b]thien-2-ylcarbonyl)amino]dibenzothiophene-2,8-dicarboxylic acid, disodium salt] had a half-maximal inhibitory concentration (IC50) of 0.7 µg/mL. In the case of `COc1ccc(C(=O)Nc2cc3c(cc2S(=O)(=O)O)-c2cc(S(=O)(=O)O)c(NC(=O)c4ccc(OC)cc4OC)cc2S3(=O)=O)c(OC)c1` [Example 51, 3,7-Bis-(2,4-dimethoxybenzoyl-amino)-5,5-dioxo-5H-5^6-dibenzothiophene-2,8-disulfonic acid disodium salt] it was 5 µg/mL; in that of `O=C(Nc1cc2c(cc1S(=O)(=O)O)-c1cc(S(=O)(=O)O)c(NC(=O)c3cnn(-c4ccccc4)n3)cc1S2(=O)=O)c1cnn(-c2ccccc2)n1` [Example 46, 5,5-Dioxo-3,7-bis-[(2-phenyl-2H-[1,2,3]triazole-4-carbonyl)amino]-5H-5^6-dibenzothiophene-2,8-disulfonic acid, disodium salt], 5 µg/mL. Under `O=C(/C=C/c1cccc(C(F)(F)F)c1)Nc1cc2c(cc1S(=O)(=O)O)-c1cc(S(=O)(=O)O)c(NC(=O)/C=C/c3cccc(C(F)(F)F)c3)cc1S2(=O)=O` [Example 38, 3,7-Bis-[3-(3-trifluoromethyl-phenyl)acryloyl-amino]-5,5-dioxo-5H-5^6-dibenzothiophene-2,8-disulfonic acid, disodium salt] stands 5 µg/mL; under `COc1ccc(C(=O)Nc2ccc(C(=O)Nc3cc4c(cc3S(=O)(=O)O)-c3cc(S(=O)(=O)O)c(NC(=O)c5ccc(NC(=O)c6ccc(OC)cc6OC)cc5OC)cc3S4(=O)=O)c(OC)c2)c(OC)c1` [Example 58, 3,7-Bis-({4-[(2,4-dimethoxy-phenyl)carbonyl-amino]-2-methoxy-phenyl}carbonyl-amino)-5,5-dioxo-5H-5^6-dibenzothiophene-2,8-disulfonic acid, disodium salt], 1.5 µg/mL; under `C=C(C(=O)Nc1cc2sc3cc(Cl)c(C(=O)O)cc3c2cc1C(=O)O)c1ccc(OC)c(OC)c1Cl` [Example 14, 3-Chloro-7-[2-(2-chloro-3,4-dimethoxyphenyl)acryloylamino]dibenzothiophene-2,8-dicarboxylic acid, disodium salt], 3 µg/mL. Regarding `O=C(Nc1cc2sc3cc(Cl)c(C(=O)O)cc3c2cc1C(=O)O)c1ccc2cc3ccccc3cc2c1` [Example 15, 3-[(2-Anthracenylcarbonyl)amino]-7-chlorodibenzothiophene-2,8-dicarboxylic acid, disodium salt], the IC50 amounted to 1.6 µg/mL.
